Assay results taken from US12649750B2, “Macrocyclic compounds, compositions, and methods of using thereof” (Sionna Therapeutics Inc., priority 2022, dated 2026).

Legend:
[1] = target: T1, CFTR (Homo sapiens, UniProt P13569, DEL508-508); experiment: TECC24 AUC fold over DMSO @10 μM, CFTR-mediated transepithelial chloride transport in CF-HBE cells; assay type: cell-based; details: test agent AUC divided by DMSO vehicle AUC, primary CF-HBE cells, ΔF508 homozygous donor, 48 hours incubation
T1 construct: Primary human bronchial epithelial cells from a ΔF508 homozygous CF donor; host or cells: primary human bronchial epithelial cells (CF-HBE), ΔF508 homozygous donor
T1 sequence (P13569 with tags, fused parts or gaps DEL508-508): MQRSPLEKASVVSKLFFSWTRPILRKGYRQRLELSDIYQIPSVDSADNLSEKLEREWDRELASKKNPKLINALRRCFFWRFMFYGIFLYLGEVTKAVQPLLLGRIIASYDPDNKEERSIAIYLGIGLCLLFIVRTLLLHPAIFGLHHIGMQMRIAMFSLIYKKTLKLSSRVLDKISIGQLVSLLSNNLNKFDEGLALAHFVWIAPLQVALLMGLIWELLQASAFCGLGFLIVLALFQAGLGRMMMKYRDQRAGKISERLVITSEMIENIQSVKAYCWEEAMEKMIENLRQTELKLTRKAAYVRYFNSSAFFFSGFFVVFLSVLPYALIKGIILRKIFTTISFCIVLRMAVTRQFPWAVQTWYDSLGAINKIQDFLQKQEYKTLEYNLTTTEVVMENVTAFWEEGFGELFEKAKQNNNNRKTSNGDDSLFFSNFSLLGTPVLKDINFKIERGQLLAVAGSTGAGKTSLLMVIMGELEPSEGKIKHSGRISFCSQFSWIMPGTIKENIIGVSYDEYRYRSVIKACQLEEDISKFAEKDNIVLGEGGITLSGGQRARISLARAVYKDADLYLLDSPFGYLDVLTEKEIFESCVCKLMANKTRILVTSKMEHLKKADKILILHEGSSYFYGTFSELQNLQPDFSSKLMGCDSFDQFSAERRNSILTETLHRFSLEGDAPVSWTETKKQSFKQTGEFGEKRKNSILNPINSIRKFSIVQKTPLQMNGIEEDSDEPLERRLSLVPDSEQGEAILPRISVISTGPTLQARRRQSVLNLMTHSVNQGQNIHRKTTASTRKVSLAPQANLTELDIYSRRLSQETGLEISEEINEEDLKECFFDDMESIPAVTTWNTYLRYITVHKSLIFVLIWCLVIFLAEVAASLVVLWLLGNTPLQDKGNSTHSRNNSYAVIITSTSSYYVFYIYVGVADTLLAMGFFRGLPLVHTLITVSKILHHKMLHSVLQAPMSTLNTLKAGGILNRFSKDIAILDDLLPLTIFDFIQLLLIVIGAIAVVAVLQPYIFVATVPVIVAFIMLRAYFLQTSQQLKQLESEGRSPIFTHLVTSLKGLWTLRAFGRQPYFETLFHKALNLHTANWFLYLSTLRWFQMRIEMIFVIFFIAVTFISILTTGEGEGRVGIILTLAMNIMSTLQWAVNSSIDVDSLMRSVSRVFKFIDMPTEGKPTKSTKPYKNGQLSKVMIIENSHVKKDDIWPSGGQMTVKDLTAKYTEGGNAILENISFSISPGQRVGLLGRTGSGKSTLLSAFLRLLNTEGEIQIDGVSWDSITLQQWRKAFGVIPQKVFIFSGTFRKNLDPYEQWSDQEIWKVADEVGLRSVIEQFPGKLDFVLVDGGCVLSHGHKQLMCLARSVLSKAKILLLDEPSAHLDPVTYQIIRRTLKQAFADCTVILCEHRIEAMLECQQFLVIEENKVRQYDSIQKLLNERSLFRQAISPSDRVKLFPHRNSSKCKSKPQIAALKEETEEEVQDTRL
How it was run: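 Primary ΔF508-homozygous CF bronchial epithelial cells on inserts were incubated 48 h at 36.5 °C with compound in IL-13-containing medium. VT and TEER were then recorded in current-clamp mode (pH 7.4 HEPES bath) with benzamil 10 μM, forskolin 10 μM, then CFTR inhibitor-172 20 μM. The IEQ AUC between forskolin and inhibitor was divided by vehicle AUC.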

[2] = target: T2, NBD1 (Homo sapiens, UniProt P13569); experiment: Aggregation analysis using differential static light scattering (DSLS), thermal stability of NBD1 (ΔTagg); assay type: binding; details: ΔTagg versus DMSO control, NBD1 0.2 mg/ml
T2 construct: Purified recombinant NBD1 was produced using previously described methods; made in house
T2 sequence (P13569 423-646 limits assumed): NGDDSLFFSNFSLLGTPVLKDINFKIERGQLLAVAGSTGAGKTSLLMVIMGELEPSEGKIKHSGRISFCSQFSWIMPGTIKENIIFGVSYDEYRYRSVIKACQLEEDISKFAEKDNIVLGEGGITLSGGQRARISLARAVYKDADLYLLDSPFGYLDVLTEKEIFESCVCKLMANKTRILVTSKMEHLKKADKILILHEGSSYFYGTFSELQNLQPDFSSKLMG
How it was run: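 Read-out is ΔTagg: the aggregation temperature, taken at the inflection of the light-scattering curve, less the average of DMSO control wells. Recombinant NBD1 (0.2 mg/ml, pH7.6 buffer containing 2 mM ATP) with test compound was heated at 1° C. per minute up to 70° C.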

SMILES | TECC (AUC, 10 μM) [1] | DSLS 3D (100 μM ΔT) [2]
C[C@H](Cc1cccc(C2(C)CCCC(C)(C)CS(=O)(=O)CCc3c(c(F)cc4[nH]ccc34)[S+]([O-])c3ccc(F)c(c3)-c3nc2nn3C)n1)C(=O)O (single isomer, unassigned) [Compound 181D] | A (a TECC value less than 12 is marked “A”) | C (a value greater than 10 °C and less than or equal to 25 °C is marked “C”)
C[C@H](Cc1cccc(C2(C)CCCC(C)(C)CS(=O)(=O)CCc3c(c(F)cc4[nH]ccc34)Oc3cc(ccn3)-c3nc2nn3C)c1)C(=O)O (single isomer, unassigned) [Compound 184] | A (a TECC value less than 12 is marked “A”) | B (a value above 5 °C and less than or equal to 10 °C is marked “B”)
C[C@@H](Cc1cccc(C2(C)CCCC(C)(C)CS(=O)(=O)CCc3c(c(F)cc4[nH]ccc34)Oc3ccc(F)c(c3)-c3nc2nn3C)c1)C(=O)NO (single isomer, unassigned) [Compound 185] | B (a value between 12-20 is marked “B”) | C (a value greater than 10 °C and less than or equal to 25 °C is marked “C”)
C[C@@H](Cc1cccc(C2(C)CCCC(C)(C)CS(=O)(=O)CCc3c(c(F)cc4[nH]ccc34)Oc3ccc(F)c(c3)-c3nc2nn3C)c1)C(=O)N(C)O (single isomer, unassigned) [Compound 187] | A (a TECC value less than 12 is marked “A”) | B (a value above 5 °C and less than or equal to 10 °C is marked “B”)
CCONC(=O)[C@@H](C)Cc1cccc(C2(C)CCCC(C)(C)CS(=O)(=O)CCc3c(c(F)cc4[nH]ccc34)Oc3ccc(F)c(c3)-c3nc2nn3C)c1 (single isomer, unassigned) [Compound 188] | B (a value between 12-20 is marked “B”) | B (a value above 5 °C and less than or equal to 10 °C is marked “B”)
CC(C)ONC(=O)[C@@H](C)Cc1cccc(C2(C)CCCC(C)(C)CS(=O)(=O)CCc3c(c(F)cc4[nH]ccc34)Oc3ccc(F)c(c3)-c3nc2nn3C)c1 (single isomer, unassigned) [Compound 189] | B (a value between 12-20 is marked “B”) | B (a value above 5 °C and less than or equal to 10 °C is marked “B”)
Cn1nc2nc1-c1cc(ccc1F)Oc1c(F)cc3[nH]ccc3c1CCS(=O)(=O)CC(C)(C)CCCC2(C)c1cccc(CC2CC(=O)N(O)C2=O)c1 (single isomer, unassigned) [Compound 195A, 3-[[3-(22,28-difluoro-3,6,10,10-tetramethyl-12,12-dioxo-24-oxa-12λ6-thia-3,4,19,30-tetrazapentacyclo[23.3.1.12,5.015,23.016,20]triaconta-1(29),2(30),4,15,17,20,22,25,27-nonaen-6-yl)phenyl]methyl]-1-hydroxy-pyrrolidine-2,5-dione] | C (a value between 20 and 80 is marked “C”) | C (a value greater than 10 °C and less than or equal to 25 °C is marked “C”)
Cn1nc2nc1-c1cc(ccc1F)Oc1c(F)cc3[nH]ccc3c1CCS(=O)(=O)CC(C)(C)CCCC2(C)c1cccc(CC2CC(=O)N(O)C2=O)c1 (single isomer, unassigned) [Compound 195B, 3-[[3-(22,28-difluoro-3,6,10,10-tetramethyl-12,12-dioxo-24-oxa-12λ6-thia-3,4,19,30-tetrazapentacyclo[23.3.1.12,5.015,23.016,20]triaconta-1(29),2(30),4,15,17,20,22,25,27-nonaen-6-yl)phenyl]methyl]-1-hydroxy-pyrrolidine-2,5-dione] | C (a value between 20 and 80 is marked “C”) | C (a value greater than 10 °C and less than or equal to 25 °C is marked “C”)
Cn1nc2nc1-c1cc(ccc1F)Oc1c(F)cc3[nH]ccc3c1CCS(=O)(=O)CC(C)(C)CCCC2(C)c1cccc(CC2CC(=O)NC2=O)c1 (single isomer, unassigned) [Compound 196A, 3-[[3-(22,28-difluoro-3,6,10,10-tetramethyl-12,12-dioxo-24-oxa-12λ6-thia-3,4,19,30-tetrazapentacyclo[23.3.1.12,5.015,23.016,20]triaconta-1(29),2(30),4,15,17,20,22,25,27-nonaen-6-yl)phenyl]methyl]pyrrolidine-2,5-dione] | A (a TECC value less than 12 is marked “A”) | C (a value greater than 10 °C and less than or equal to 25 °C is marked “C”)
Cn1nc2nc1-c1cc(ccc1F)Oc1c(F)cc3[nH]ccc3c1CCS(=O)(=O)CC(C)(C)CCCC2(C)c1cccc(CC2CC(=O)NC2=O)c1 (single isomer, unassigned) [Compound 196B, 3-[[3-(22,28-difluoro-3,6,10,10-tetramethyl-12,12-dioxo-24-oxa-12λ6-thia-3,4,19,30-tetrazapentacyclo[23.3.1.12,5.015,23.016,20]triaconta-1(29),2(30),4,15,17,20,22,25,27-nonaen-6-yl)phenyl]methyl]pyrrolidine-2,5-dione] | A (a TECC value less than 12 is marked “A”) | A (an ΔTagg value less than or equal to 5 °C is marked “A”)
C[C@@H](Cc1cccc([C@@]2(C)CCCC(C)(C)CS(=O)(=O)CCc3c(c(F)cc4[nH]ccc34)[S+]([O-])c3ccc(F)c(c3)-c3nc2nn3C)c1)C(=O)O (single isomer, unassigned) [Compound 204] | C (a value between 20 and 80 is marked “C”) | C (a value greater than 10 °C and less than or equal to 25 °C is marked “C”)
C[C@@H](Cc1cccc([C@@]2(C)CCCC(C)(C)CS(=O)(=O)CCc3c(c(F)cc4[nH]ccc34)[S+]([O-])c3ccc(F)c(c3)-c3nc2nn3C)c1)C(=O)O (single isomer, unassigned) [Compound 205] | A (a TECC value less than 12 is marked “A”) | B (a value above 5 °C and less than or equal to 10 °C is marked “B”)
C[C@H](Cc1cccc([C@@]2(C)CCCC(C)(C)CS(=O)(=O)CCc3c(c(F)cc4[nH]ccc34)[S+]([O-])c3ccc(F)c(c3)-c3nc2nn3C)c1)C(=O)O (single isomer, unassigned) [Compound 206A] | C (a value between 20 and 80 is marked “C”) | C (a value greater than 10 °C and less than or equal to 25 °C is marked “C”)
C[C@H](Cc1cccc([C@@]2(C)CCCC(C)(C)CS(=O)(=O)CCc3c(c(F)cc4[nH]ccc34)[S+]([O-])c3ccc(F)c(c3)-c3nc2nn3C)c1)C(=O)O (single isomer, unassigned) [Compound 206B] | A (a TECC value less than 12 is marked “A”) | B (a value above 5 °C and less than or equal to 10 °C is marked “B”)
Cn1nc2nc1-c1cc(ccc1F)[S+]([O-])c1c(F)cc3[nH]ccc3c1CCS(=O)(=O)CC(C)(C)CCC[C@]2(C)c1cccc(CC(=O)O)c1 (single isomer, unassigned) [Compound 209A] | A (a TECC value less than 12 is marked “A”) | B (a value above 5 °C and less than or equal to 10 °C is marked “B”)
Cn1nc2nc1-c1cc(ccc1F)[S+]([O-])c1c(F)cc3[nH]ccc3c1CCS(=O)(=O)CC(C)(C)CCC[C@]2(C)c1cccc(CC(=O)O)c1 (single isomer, unassigned) [Compound 209B] | C (a value between 20 and 80 is marked “C”) | C (a value greater than 10 °C and less than or equal to 25 °C is marked “C”)
C[C@@H](Cc1cccc([C@@]2(C)CCCC(C)(C)CS(=O)(=O)CCc3c(c(F)cc4[nH]ccc34)[S+]([O-])c3cccc(c3)-c3nc2nn3C)c1)C(=O)O (single isomer, unassigned) [Compound 211A] | B (a value between 12-20 is marked “B”) | C (a value greater than 10 °C and less than or equal to 25 °C is marked “C”)
C[C@@H](Cc1cccc([C@@]2(C)CCCC(C)(C)CS(=O)(=O)CCc3c(c(F)cc4[nH]ccc34)[S+]([O-])c3cccc(c3)-c3nc2nn3C)c1)C(=O)O (single isomer, unassigned) [Compound 211B] | A (a TECC value less than 12 is marked “A”) | C (a value greater than 10 °C and less than or equal to 25 °C is marked “C”)
Cn1nc2nc1-c1cc(ccc1F)[S+]([O-])c1c(F)cc3[nH]ccc3c1CCS(=O)(=O)CC(C)(C)CCC[C@]2(C)c1cccc(CCC(=O)O)c1 (single isomer, unassigned) [Compound 215A] | A (a TECC value less than 12 is marked “A”) | C (a value greater than 10 °C and less than or equal to 25 °C is marked “C”)
Cn1nc2nc1-c1cc(ccc1F)[S+]([O-])c1c(F)cc3[nH]ccc3c1CCS(=O)(=O)CC(C)(C)CCC[C@]2(C)c1cccc(CCC(=O)O)c1 (single isomer, unassigned) [Compound 215B] | C (a value between 20 and 80 is marked “C”) | C (a value greater than 10 °C and less than or equal to 25 °C is marked “C”)
Cn1nc2nc1-c1cc(ccc1F)[S+]([O-])c1c(F)cc3[nH]ccc3c1CCS(=O)(=O)CC(C)(C)CCC[C@]2(C)c1cccc(CCO)c1 (single isomer, unassigned) [Compound 216A] | B (a value between 12-20 is marked “B”) | B (a value above 5 °C and less than or equal to 10 °C is marked “B”)
